Experimental findings from US12448394B2, “Heterocyclic pyrazole derivatives as type III receptor tyrosine kinase inhibitors” (DEVELOPMENT CENTER FOR BIOTECHNOLOGY, priority 2019, dated 2025) are described below.

For one experiment, the target named is T1, FLT3-D835Y mutant kinase (Homo sapiens, UniProt P36888, D835Y).
T1 construct: purchased SignalChem
T1 sequence (P36888 27-993 D835Y): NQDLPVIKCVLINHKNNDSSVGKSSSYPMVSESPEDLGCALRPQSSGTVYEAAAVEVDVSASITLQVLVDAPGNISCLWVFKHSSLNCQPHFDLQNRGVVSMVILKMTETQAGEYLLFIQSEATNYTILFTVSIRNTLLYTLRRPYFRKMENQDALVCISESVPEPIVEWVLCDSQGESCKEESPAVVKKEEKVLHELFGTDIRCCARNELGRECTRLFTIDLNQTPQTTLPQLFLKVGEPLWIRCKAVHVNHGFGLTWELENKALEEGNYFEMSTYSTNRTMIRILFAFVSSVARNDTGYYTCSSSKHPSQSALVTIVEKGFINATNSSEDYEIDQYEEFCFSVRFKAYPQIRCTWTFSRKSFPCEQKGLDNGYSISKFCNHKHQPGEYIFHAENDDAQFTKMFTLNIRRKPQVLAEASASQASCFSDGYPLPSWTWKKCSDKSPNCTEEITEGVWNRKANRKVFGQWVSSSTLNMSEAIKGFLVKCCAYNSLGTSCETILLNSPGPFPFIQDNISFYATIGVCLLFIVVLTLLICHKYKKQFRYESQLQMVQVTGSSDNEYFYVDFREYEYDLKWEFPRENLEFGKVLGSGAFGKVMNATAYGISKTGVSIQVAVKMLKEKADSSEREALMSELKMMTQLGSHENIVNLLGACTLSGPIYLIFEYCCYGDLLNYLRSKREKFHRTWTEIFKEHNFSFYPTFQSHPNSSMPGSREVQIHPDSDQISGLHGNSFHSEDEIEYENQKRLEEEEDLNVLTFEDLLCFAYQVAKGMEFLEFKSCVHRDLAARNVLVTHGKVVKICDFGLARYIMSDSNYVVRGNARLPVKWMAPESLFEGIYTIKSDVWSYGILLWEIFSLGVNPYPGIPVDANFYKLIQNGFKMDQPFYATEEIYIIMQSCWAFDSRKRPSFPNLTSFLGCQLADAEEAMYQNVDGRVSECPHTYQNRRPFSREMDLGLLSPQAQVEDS
Kind of experiment: FLT3-D835Y mutant kinase assay (AlphaScreen). The class given is biochemical. To be noted: read-out: Ranking of IC50 values, FLT3-D835Y. In short, it runs like this:
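Recombinant FLT3-D835Y (1 ng) phosphorylated biotin-poly(Glu4:Tyr1) at 10 μM ATP, pH 7.0 MOPS buffer with 10 mM MgCl2, for 30 min at 30 °C, stopped with EDTA. Product was read by AlphaScreen. IC50 came from serial dilutions run in duplicate.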
A general note: Alpha assays give light when donor and acceptor beads are brought close together.

Experiment [1] relates to THP-1 human acute monocytic leukemia cell with NRAS G12D mutation. Kind of experiment: THP-1 cell proliferation assay (counter screen). The format is cell-based. To be noted: Homo sapiens, THP-1 cells, 72 hours treatment, CellTiter96, read-out: anti-proliferation activity THP-1 NRAS N12D, IC50 ranking. An outline of the steps: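 THP-1 cells (NRAS G12D, growth independent of class III RTK signaling) seeded at 5000 cells/well overnight, then exposed to increasing compound concentrations for 72 h at 37° C, 5% CO2. Viability read by CellTiter96 AQueous One reagent (2–4 h) as absorbance at 490 nm.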
On the technique in general: Counterscreens check selectivity or assay interference.

For experiment [2], the system named is phosphorylation of FLT3 and its down-stream effector STAT5. Kind of experiment: Western blotting of p-FLT3 and p-STAT5 in MV4-11 cells. Conditions: Homo sapiens; at 30 nM treatment, 3 hours, FLT3-ITD positive MV4-11 leukemia cells; read-out: inhibition activity against phosphorylation of FLT3 and its down-stream effector STAT5. The class given is cell-based. An outline of the steps:
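MV4-11 cells held overnight in IMDM with 0.1% FBS, then 3 million cells treated with compound for 3 h. Whole lysates immunoblotted for p-FLT3 (Tyr-591), p-STAT5 (Tyr-694) and actin. Band intensities at 30 nM compared to DMSO control; % inhibition = (1 − relative intensity) × 100.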

`Cc1cc(CN2CCOCC2)ccc1-c1cc2c(s1)Cc1c(-c3ccc4cnn(C)c4c3)n[nH]c1-2` [Compound 91, 4-(3-methyl-4-(3-(1-methyl-1H-indazol-6-yl)-1,4-dihydrothieno [2′,3′:4,5]cyclopenta [1,2-c]pyrazol-6-yl)benzyl)morpholine]: the IC50 at FLT3-D835Y mutant kinase is 1 to 10 nM; in experiment [1] it was 1 to 10 µM.

On to `CN1CCN(c2ccc(-c3cc4c(s3)Cc3c(-c5ccc6cnn(C)c6c5)n[nH]c3-4)cn2)CC1` [Compound 85, 3-(1-methyl-1H-indazol-6-yl)-6-(6-(4-methyl-piperazin-1-yl)pyridin-3-yl)-1,4-dihydrothieno [2′,3′:4,5]cyclopenta [1,2-c]pyrazole], for which the IC50 at FLT3-D835Y mutant kinase was less than 1 nM; in experiment [1], greater than 10 µM.

In the case of `Cn1ncc2ccc(-c3n[nH]c4c3Cc3sc(-c5ccc(CN6CCNCC6=O)cc5)cc3-4)cc21` [Compound 101, 1-(4-(3-(1-methyl-1H-indazol-6-yl)-1,4-dihydro-thieno[2′,3′:4,5]cyclopenta [1,2-c]pyrazol-6-yl)benzyl)piperazin-2-one], the IC50 in experiment [1] is greater than 10 µM. Moreover, the inhibition at 0.03 µM in experiment [2] is greater than 50%.

Consider `Cn1ncc2ccc(-c3n[nH]c4c3Cc3sc(-c5ccnc(Cl)c5)cc3-4)cc21` [Compound 86, 6-(2-chloropyridin-4-yl)-3-(1-methyl-1H-indazol-6-yl)-1,4-dihydrothieno [2′,3′:4,5]cyclopenta [1,2-c]pyrazole], for which the IC50 on FLT3-D835Y mutant kinase is 1 to 10 nM; in experiment [1], greater than 10 µM.

On to `Cc1ccc(-c2cc3c(s2)Cc2c(-c4ccc5[nH]ncc5c4)n[nH]c2-3)cn1` [Compound 36, 3-(1H-indazol-5-yl)-6-(6-methylpyridin-3-yl)-1,4-dihydrothieno[2′,3′:4,5] cyclopenta[1,2-c]pyrazole], for which the IC50 in experiment [1] is greater than 10 µM. Moreover, the inhibition at 0.03 µM in experiment [2] is greater than 50%.

Take `CN(C)Cc1ccc(-c2cc3c(s2)Cc2c(-c4ccc5cnn(C)c5c4)n[nH]c2-3)cn1` [Compound 93, N,N-dimethyl-1-(5-(3-(1-methyl-1H-indazol-6-yl)-1,4-dihydrothieno [2′,3′:4,5]cyclopenta [1,2-c]pyrazol-6-yl)pyridin-2-yl)methanamine]: the figures for the IC50 (on FLT3-D835Y mutant kinase; in experiment [1]) were 1 to 10 nM and greater than 10 µM, respectively.

Consider `Cn1ncc2ccc(-c3n[nH]c4c3Cc3sc(-c5ccc(CN6CCOC6=O)cc5)cc3-4)cc21` [Compound 62, 3-(4-(3-(1-methyl-1H-indazol-6-yl)-1,4-dihydro-thieno[2′,3′:4,5]cyclopenta [1,2-c]pyrazol-6-yl)benzyl)oxazolidin-2-one], for which, in experiment [1], the IC50 was greater than 10 µM. In addition, the inhibition at 0.03 µM in experiment [2] was greater than 50%.

As to `Cc1n[nH]c2cc(-c3n[nH]c4c3Cc3sc(-c5ccc(CN6CCOCC6)cc5)cc3-4)ccc12` [Compound 81, 4-(4-(3-(3-methyl-1H-indazol-6-yl)-1,4-dihydro-thieno[2′,3′:4,5]cyclopenta [1,2-c]pyrazol-6-yl)benzyl)morpholine], the IC50 is 1 to 10 nM at FLT3-D835Y mutant kinase and 1 to 10 µM in experiment [1].

For the compound `Cc1ccc(-c2cc3c(s2)Cc2c(-c4ccc5cn[nH]c5c4)n[nH]c2-3)cn1` [Compound 30, 3-(1H-indazol-6-yl)-6-(6-methylpyridin-3-yl)-1,4-dihydrothieno[2′,3′:4,5] cyclopenta[1,2-c]pyrazole], in experiment [1], the IC50 was greater than 10 µM. Moreover, the inhibition at 0.03 µM in experiment [2] is greater than 50%.

On to `Cn1ncc2ccc(-c3n[nH]c4c3Cc3sc(-c5ccc(N)nc5)cc3-4)cc21` [Compound 92, 5-(3-(1-methyl-1H-indazol-6-yl)-1,4-dihydro-thieno[2′,3′:4,5]cyclopenta [1,2-c]pyrazol-6-yl) pyridin-2-amine], for which the IC50 at FLT3-D835Y mutant kinase is less than 1 nM; in experiment [1], 1 to 10 µM. Besides, in experiment [2], the inhibition at 0.03 µM was greater than 50%.

As to `CN1CCN(Cc2ccc(-c3cc4c(s3)Cc3c(-c5ccc6cn[nH]c6c5)n[nH]c3-4)cc2)CC1` [Compound 83, 3-(1H-indazol-6-yl)-6-(4-((4-methylpiperazin-1-yl)methyl)phenyl)-1,4-dihydrothieno[2′,3′:4,5] cyclopenta[1,2-c]pyrazole], the IC50 on FLT3-D835Y mutant kinase was less than 1 nM; in experiment [1], greater than 10 µM. The inhibition at 0.03 µM in experiment [2] was greater than 50%.

Turning to `Cn1ncc2ccc(-c3n[nH]c4c3Cc3sc(-c5ccc(CN6CCOCC6)cc5OC(F)(F)F)cc3-4)cc21` [Compound 90, 4-(4-(3-(1-methyl-1H-indazol-6-yl)-1,4-dihydro-thieno[2′,3′:4,5]cyclopenta [1,2-c]pyrazol-6-yl)-3-(trifluoromethoxy)benzyl) morpholine], the figures for the IC50 (on FLT3-D835Y mutant kinase; in experiment [1]) were 1 to 10 nM and greater than 10 µM, respectively.

For the compound `COc1ccc(-c2cc3c(s2)Cc2c(-c4ccc5cn[nH]c5c4)n[nH]c2-3)cn1` [Compound 2, 3-(1H-indazol-6-yl)-6-(6-methoxypyridin-3-yl)-1,4-dihydrothieno[2′,3′:4,5] cyclopenta[1,2-c]pyrazole], the IC50 in experiment [1] is greater than 10 µM. Moreover, the inhibition at 0.03 µM in experiment [2] is greater than 50%.

`CN1CCN(c2cc(-c3cc4c(s3)Cc3c(-c5ccc6cnn(C)c6c5)n[nH]c3-4)ccn2)CC1` [Compound 87, 3-(1-methyl-1H-indazol-6-yl)-6-(2-(4-methyl-piperazin-1-yl)pyridin-4-yl)-1,4-dihydrothieno [2′,3′:4,5]cyclopenta [1,2-c]pyrazole]: the values for the IC50 (on FLT3-D835Y mutant kinase; in experiment [1]) were less than 1 nM and greater than 10 µM, respectively.

As for `Nc1ccc(-c2cc3c(s2)Cc2c(-c4ccc5[nH]ncc5c4)n[nH]c2-3)cn1` [Compound 40, 5-(3-(1H-indazol-5-yl)-1,4-dihydrothieno [2′,3′:4,5]cyclopenta [1,2-c]pyrazol-6-yl) pyridin-2-amine], the IC50 in experiment [1] was in the range of 1 to 10 µM. In addition, in experiment [2], the inhibition at 0.03 µM is greater than 50%.

Regarding `Cn1ncc2ccc(-c3n[nH]c4c3Cc3sc(-c5ccc(CN6CCOCC6)c(F)c5F)cc3-4)cc21` [Compound 88, 4-(2,3-difluoro-4-(3-(1-methyl-1H-indazol-6-yl)-1,4-dihydrothieno [2′,3′:4,5]cyclopenta [1,2-c]pyrazol-6-yl)benzyl)morpholine], the values for the IC50 (at FLT3-D835Y mutant kinase; in experiment [1]) were 1 to 10 nM and greater than 10 µM, respectively.

As for `Nc1ccc(-c2cc3c(s2)Cc2c(-c4ccc5cn[nH]c5c4)n[nH]c2-3)cn1` [Compound 3, 5-(3-(1H-indazol-6-yl)-1,4-dihydrothieno[2′,3′:4,5]cyclopenta[1,2-c]pyrazol-6-yl)pyridin-2-amine], the IC50 in experiment [1] was greater than 10 µM. The inhibition at 0.03 µM in experiment [2] is greater than 50%.

On to `COc1ccc(-c2cc3c(s2)Cc2c(-c4ccc5[nH]ncc5c4)n[nH]c2-3)cn1` [Compound 1, 3-(1H-indazol-5-yl)-6-(6-methoxypyridin-3-yl)-1,4-dihydrothieno[2′,3′:4,5] cyclopenta[1,2-c]pyrazole], for which the IC50 in experiment [1] was greater than 10 µM. Also, the inhibition at 0.03 µM in experiment [2] was greater than 50%.

Take `Cn1ncc2ccc(-c3n[nH]c4c3Cc3sc(-c5ccc(N6CCOCC6)nc5)cc3-4)cc21` [Compound 82, 4-(5-(3-(1-methyl-1H-indazol-6-yl)-1,4-dihydro-thieno[2′,3′:4,5]cyclopenta [1,2-c]pyrazol-6-yl)pyridin-2-yl)morpholine]: the IC50 on FLT3-D835Y mutant kinase is 1 to 10 nM; in experiment [1] it was greater than 10 µM.

As to `COc1ccc(-c2cc3c(s2)Cc2c(-c4ccc5cnn(C)c5c4)n[nH]c2-3)cn1` [Compound 4, 6-(6-methoxypyridin-3-yl)-3-(1-methyl-1H-indazol-6-yl)-1,4-dihydrothieno [2′,3′:4,5]cyclopenta[1,2-c] pyrazole], the IC50 is less than 1 nM at FLT3-D835Y mutant kinase and greater than 10 µM in experiment [1].

The term inhibition denotes the percentage by which the read-out fell short of the control.
